Experimental data published in patent US12404295B2, “(Hetero)aryl-methyl-thio-beta-D-galactopyranoside derivatives” (Idorsia Pharmaceuticals Ltd, priority 2019, dated 2025).
Like-named read-outs stand apart in the source and are kept apart here.

Columns and labels:
human Gal-3 (hGal-3) = human Gal-3 (hGal-3) (Homo sapiens (Human), UniProt P17931); assay: competitive binding assay: biotinylated hGal-3 binding to microplate-adsorbed asialofetuin (ASF)
How it was run: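 Peroxidase activity developed with ABTS measures the biotinylated hGal-3 remaining on the asialofetuin-coated surface after competition with test compounds. Incubation ran 3 h at 4 °C, followed by 1 h with streptavidin-peroxidase at 80 ng/mL.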

human Gal-1 (hGal-1) = human Gal-1 (hGal-1) (Homo sapiens (Human), UniProt P09382); assay: competitive binding assay: biotinylated hGal-1 binding to microplate-adsorbed asialofetuin (ASF); conditions: Table 15; read-out: IC50 (Galectin-1 inhibition)
Chain of human Gal-1 (hGal-1) (P09382 whole entry): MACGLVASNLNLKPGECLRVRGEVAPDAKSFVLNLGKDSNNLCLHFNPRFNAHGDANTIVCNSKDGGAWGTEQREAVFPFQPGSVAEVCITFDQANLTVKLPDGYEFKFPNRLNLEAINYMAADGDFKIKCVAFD
How it was run: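 Biotinylated human Gal-1 (300-1000 ng/mL) competes with serially diluted compound for binding to ASF-coated plates, 3 h at 4° C. Bound protein detected with streptavidin-peroxidase and ABTS substrate (spectrophotometric). IC50 given as mean of several measurements.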

[1] = Table 5, read-out: IC50 (Gal-3 inhibition)
[2] = Table 11, read-out: IC50 (Gal-3 inhibition)
[3] = Gal-3 inhibition, binding of biotinylated hGal-3 to ASF, mean values, read-out: IC50

Chain of human Gal-3 (hGal-3) (P17931 whole entry): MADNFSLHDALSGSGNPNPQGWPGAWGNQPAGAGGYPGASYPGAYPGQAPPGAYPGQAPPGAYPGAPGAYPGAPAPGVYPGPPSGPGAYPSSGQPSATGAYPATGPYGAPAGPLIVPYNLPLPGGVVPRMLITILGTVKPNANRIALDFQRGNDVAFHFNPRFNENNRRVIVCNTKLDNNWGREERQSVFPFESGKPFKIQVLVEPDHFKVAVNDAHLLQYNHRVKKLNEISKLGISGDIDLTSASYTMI

Row | Compound | IC50 (human Gal-3 (hGal-3); [1]) [nM] | IC50 (human Gal-1 (hGal-1)) [nM] | IC50 (human Gal-3 (hGal-3); [2]) [nM] | IC50 (human Gal-3 (hGal-3); [3]) [nM] | IC50 (human Gal-3 (hGal-3); Table 10, 2-OMe-Gal inhibitors, read-out: IC50 (Gal-3 inhibition)) [nM]
1 | Cc1conc1[C@@H](S[C@@H]1O[C@H](CO)[C@H](O)[C@H](n2cc(-c3cc(F)c(F)c(F)c3)nn2)[C@H]1O)C1(O)CCCCC1 [Example 2.39.120R., (2S,3R,4S,5R,6R)-2-(((R)-(1-Hydroxycyclohexyl)(4-methylisoxazol-3-yl)methyl)thio)-6-(hydroxymethyl)-4-(4-(3,4,5-trifluorophenyl)-1H-1,2,3-triazol-1-yl)tetrahydro-2H-pyran-3,5-diol] | 200 | 610 |  |  | 
2 | (2S,3R,4S,5R,6R)-2-(((S)-(1-Hydroxycyclohexyl)(4-methylisoxazol-3-yl)methyl)thio)-6-(hydroxymethyl)-4-(4-(3,4,5-trifluorophenyl)-1H-1,2,3-triazol-1-yl)tetrahydro-2H-pyran-3,5-diol [Example 2.39.120S.] | 14800 | 70000 |  |  | 
3 | CC(C)c1ccccc1[C@@H](S[C@@H]1O[C@H](CO)[C@H](O)[C@H](n2cc(-c3cc(F)c(F)c(F)c3)nn2)[C@H]1O)C1(O)CCC(F)(F)CC1 [Example 2.44.105R., (2S,3R,4S,5R,6R)-2-(((R)-(4,4-Difluoro-1-hydroxycyclohexyl)(2-isopropylphenyl)methyl)thio)-6-(hydroxymethyl)-4-(4-(3,4,5-trifluorophenyl)-1H-1,2,3-triazol-1-yl)tetrahydro-2H-pyran-3,5-diol [1,3-di-deoxy-1-((4,4-difluoro-1-hydroxy-cyclohexan-1-yl)-(2-(-isopropyl)phenyl)methyl-(R)-thio)-3-[4-(3,4,5-trifluorophenyl)-1H-1,2,3-triazol-1-yl]-β-D-galactopyranoside]] | 60 | 40 |  |  | 
4 | OC[C@H]1O[C@@H](S[C@H](c2ncccc2C(F)(F)F)C2(O)CCCCC2)[C@H](O)[C@@H](n2cc(-c3cc(F)c(F)c(F)c3)nn2)[C@H]1O [Example 2.39.125R., (2S,3R,4S,5R,6R)-2-(((R)-(1-Hydroxycyclohexyl)(3-(trifluoromethyl)pyridin-2-yl)methyl)thio)-6-(hydroxymethyl)-4-(4-(3,4,5-trifluorophenyl)-1H-1,2,3-triazol-1-yl)tetrahydro-2H-pyran-3,5-diol] | 100 | 280 |  |  | 
5 | CCc1cccnc1C(S[C@@H]1O[C@H](CO)[C@H](O)[C@H](n2cc(-c3cc(F)c(F)c(F)c3)nn2)[C@H]1OC)C1(O)CCC(F)(F)CC1 (stereo partly drawn) [Example 2.44.142.I., (2R,3R,4S,5R,6S)-6-(((4,4-Difluoro-1-hydroxycyclohexyl)(3-ethylpyridin-2-yl)methyl)thio)-2-(hydroxymethyl)-5-methoxy-4-(4-(3,4,5-trifluorophenyl)-1H-1,2,3-triazol-1-yl)tetrahydro-2H-pyran-3-ol] |  | 190 | 50 |  | 
6 | CN1CCC(O)(C(S[C@@H]2O[C@H](CO)[C@H](O)[C@H](n3cc(-c4cc(F)c(F)c(F)c4)nn3)[C@H]2O)c2ccccc2C(F)(F)F)CC1 (stereo partly drawn) [Example 2.40.112., (2S,3R,4S,5R,6R)-2-(((4-Hydroxy-1-methylpiperidin-4-yl)(2-(trifluoromethyl)phenyl)methyl)thio)-6-(hydroxymethyl)-4-(4-(3,4,5-trifluorophenyl)-1H-1,2,3-triazol-1-yl)tetrahydro-2H-pyran-3,5-diol] | 130 | 420 |  |  | 
7 | Cc1noc(C)c1C(S[C@@H]1O[C@H](CO)[C@H](O)[C@H](n2cc(-c3cc(F)c(F)c(F)c3)nn2)[C@H]1O)C(C)(C)O (stereo partly drawn) [Example 2.31.121., (2S,3R,4S,5R,6R)-2-((1-(3,5-Dimethylisoxazol-4-yl)-2-hydroxy-2-methylpropyl)thio)-6-(hydroxymethyl)-4-(4-(3,4,5-trifluorophenyl)-1H-1,2,3-triazol-1-yl)tetrahydro-2H-pyran-3,5-diol] |  | 5030 |  | 710 | 
8 | CC(C)(O)[C@@H](S[C@@H]1O[C@H](CO)[C@H](O)[C@H](n2cc(-c3cc(F)c(F)c(F)c3)nn2)[C@H]1O)c1ccccc1CCO [Example 2.31.108S., (2S,3R,4S,5R,6R)-2-(((S)-2-Hydroxy-1-(2-(2-hydroxyethyl)phenyl)-2-methylpropyl)thio)-6-(hydroxymethyl)-4-(4-(3,4,5-trifluorophenyl)-1H-1,2,3-triazol-1-yl)tetrahydro-2H-pyran-3,5-diol] |  | 25800 |  | 8100 | 
9 | CC(C)(O)C(S[C@@H]1O[C@H](CO)[C@H](O)[C@H](n2cc(-c3cc(F)c(F)c(F)c3)nn2)[C@H]1O)c1ccccc1CCO (stereo partly drawn) [Example 2.31.108., (2S,3R,4S,5R,6R)-2-((2-Hydroxy-1-(2-(2-hydroxyethyl)phenyl)-2-methylpropyl)thio)-6-(hydroxymethyl)-4-(4-(3,4,5-trifluorophenyl)-1H-1,2,3-triazol-1-yl)tetrahydro-2H-pyran-3,5-diol] |  | 21200 |  | 380 | 
10 | Cc1noc(C2CC2)c1C(S[C@@H]1O[C@H](CO)[C@H](O)[C@H](n2cc(-c3cc(F)c(F)c(F)c3)nn2)[C@H]1O)C1(O)CCCCC1 (stereo partly drawn) [Example 2.39.128., (2S,3R,4S,5R,6R)-2-(((5-Cyclopropyl-3-methylisoxazol-4-yl)(1-hydroxycyclohexyl)methyl)thio)-6-(hydroxymethyl)-4-(4-(3,4,5-trifluorophenyl)-1H-1,2,3-triazol-1-yl)tetrahydro-2H-pyran-3,5-diol] | 210 | 1110 |  |  | 
11 | OC[C@H]1O[C@@H](S[C@@H](c2nccnc2Cl)C2(O)CCC(F)(F)CC2)[C@H](O)[C@@H](n2cc(-c3cc(F)c(F)c(F)c3)nn2)[C@H]1O [Example 2.44.133S., (2S,3R,4S,5R,6R)-2-(((S)-(3-Chloropyrazin-2-yl)(4,4-difluoro-1-hydroxycyclohexyl)methyl)thio)-6-(hydroxymethyl)-4-(4-(3,4,5-trifluorophenyl)-1H-1,2,3-triazol-1-yl)tetrahydro-2H-pyran-3,5-diol] |  | 15800 |  | 1830 | 
12 | (2S,3R,4S,5R,6R)-2-(((S)-(4,4-Difluoro-1-hydroxycyclohexyl)(2-(trifluoromethyl)phenyl)methyl)thio)-6-(hydroxymethyl)-4-(4-(3,4,5-trifluorophenyl)-1H-1,2,3-triazol-1-yl)tetrahydro-2H-pyran-3,5-diol [Example 2.44.112S.] | 19500 | 17600 |  |  | 
13 | Cc1conc1[C@@H](S[C@@H]1O[C@H](CO)[C@H](O)[C@H](n2cc(-c3cc(F)c(F)c(F)c3)nn2)[C@H]1O)C(C)(C)O [Example 2.31.120R., (2S,3R,4S,5R,6R)-2-(((R)-2-Hydroxy-2-methyl-1-(4-methylisoxazol-3-yl)propyl)thio)-6-(hydroxymethyl)-4-(4-(3,4,5-trifluorophenyl)-1H-1,2,3-triazol-1-yl)tetrahydro-2H-pyran-3,5-diol] |  | 1800 |  | 320 | 
14 | Cc1nc([C@H](S[C@@H]2O[C@H](CO)[C@H](O)[C@H](n3cc(-c4cc(F)c(F)c(F)c4)nn3)[C@H]2O)C(C)(C)O)c(C)o1 [Example 2.31.122S., (2S,3R,4S,5R,6R)-2-(((S)-1-(2,5-dimethyloxazol-4-yl)-2-hydroxy-2-methylpropyl)thio)-6-(hydroxymethyl)-4-(4-(3,4,5-trifluorophenyl)-1H-1,2,3-triazol-1-yl)tetrahydro-2H-pyran-3,5-diol] |  | 11200 |  | 4120 | 
15 | Cc1conc1[C@@H](S[C@@H]1O[C@H](CO)[C@H](O)[C@H](n2cc(-c3cc(F)c(F)c(F)c3)nn2)[C@H]1O)C1(O)CCC(F)(F)CC1 [Example 2.44.120R., (2S,3R,4S,5R,6R)-2-(((R)-(4,4-Difluoro-1-hydroxycyclohexyl)(4-methylisoxazol-3-yl)methyl)thio)-6-(hydroxymethyl)-4-(4-(3,4,5-trifluorophenyl)-1H-1,2,3-triazol-1-yl)tetrahydro-2H-pyran-3,5-diol] | 110 | 380 |  |  | 
16 | Cc1nc(C)c([C@@H](S[C@@H]2O[C@H](CO)[C@H](O)[C@H](n3cc(-c4cc(F)c(F)c(F)c4)nn3)[C@H]2O)C2(O)CCOCC2)nc1C [Example 2.41.119R., (2R,3R,4S,5R,6S)-2-(Hydroxymethyl)-6-(((R)-(4-hydroxytetrahydro-2H-pyran-4-yl)(3,5,6-trimethylpyrazin-2-yl)methyl)thio)-4-(4-(3,4,5-trifluorophenyl)-1H-1,2,3-triazol-1-yl)tetrahydro-2H-pyran-3,5-diol] | 60 | 490 |  |  | 
17 | (2S,3R,4S,5R,6R)-2-(((R)-(2-Cyclopropylphenyl)(4,4-difluoro-1-hydroxycyclohexyl)methyl)thio)-6-(hydroxymethyl)-4-(4-(3,4,5-trifluorophenyl)-1H-1,2,3-triazol-1-yl)tetrahydro-2H-pyran-3,5-diol [Example 2.44.106R.] | 60 | 20 |  |  | 
18 | CO[C@@H]1[C@@H](n2cc(-c3cc(F)c(F)c(F)c3)nn2)[C@@H](O)[C@@H](CO)O[C@H]1S[C@H](c1nccc(C(F)(F)F)c1C)C1(O)CCC(F)(F)CC1 [Example 2.44.147R.I., (2R,3R,4S,5R,6S)-6-(((R)-(4,4-Difluoro-1-hydroxycyclohexyl)(3-methyl-4-(trifluoromethyl)pyridin-2-yl)methyl)thio)-2-(hydroxymethyl)-5-methoxy-4-(4-(3,4,5-trifluorophenyl)-1H-1,2,3-triazol-1-yl)tetrahydro-2H-pyran-3-ol] |  | 760 | 190 |  | 
19 | (2R,3R,4S,5R,6S)-6-(((R)-(5-Cyclopropyl-3-methylisoxazol-4-yl)(1-hydroxycyclohexyl)methyl)thio)-2-(hydroxymethyl)-5-methoxy-4-(4-(3,4,5-trifluorophenyl)-1H-1,2,3-triazol-1-yl)tetrahydro-2H-pyran-3-ol [Example 2.39.128R.I.] |  | 2360 |  |  | 300
